In patent US4866038A, “Method of stimulating integumental melanocytes by topical application of analogs of alpha-msh” (University Patents, Inc., priority 1988, dated 1989):
Non-standard residues stand in square brackets, D forms with d. Residues, ends and D or L forms follow the SMILES beside them. Phe(4-NO2) = N[C@@H](Cc1ccc([N+](=O)[O-])cc1)C(=O)O; Phg = N[C@H](C(=O)O)c1ccccc1; Nle = CCCC[C@H](N)C(=O)O

What was measured:
[1] = test system: TA-98 strain of S. typhimurium; assay: Ames microbacterial assay; conditions: for REVERTANTS PER PLATE WITH S-9 / REVERTANTS PER PLATE WITHOUT S-9 / […] PLATE WITHOUT S-9: TA-98, spontaneous revertants subtracted
Description: The Ames microbacterial assay was used for these tests which were performed both with and without a microsomal enzyme/NADPH generating system. Briefly, this test measures the number of reverse mutations which occur in special histidine-dependent strains of Salmonella typhimurium. Positives (mutations) are scored as the number of revertant cells which are able to form colonies in a histidine-deficient growth medium after exposure to a mutagenic substance.
All substances were dissolved in sterile 0.9% sodium chloride (without preservatives) to concentrations of 10^-2, 10^-3 and 10^-4 Molar. The TA-98 strain of S. typhimurium was used and experiments were performed with and without exposure to S-9 rat liver microsomal enzymes and an NADPH generating system. This enzyme cocktail can metabolically activate some compounds to mutagenic species. In addition to the melanotropins, Doxorubicin (Adriamycin™) was also simultaneously tested. […] It was thus included to act as a positive control. […] For the actual evaluation of revertants, the identity of the specific test compound was blinded.

[2] = test system: frog (Rana pipiens); assay type: cell-based
Description: (§1) Biological effect on in vivo and in vitro melanosome dispersion was examined using the frog (Rana pipiens) and the lizard (Anolis caroliniensis). [See Hadley et al., Science 213:1025-1027(1981)]; similar examinations were conducted with respect to the duration of its ability to stimulate melanosome dispersion in vitro using the skin bioassay as described in Shimume, Endrochrinology, 54:553-560(1954). The in vitro results are depicted in Table I.

[3] = test system: lizard (Anolis caroliniensis); assay type: cell-based
Description: as §1

[4] = test system: C57BL/6JA^y mice; assay: topical application in PEG ointment, follicular melanogenesis in the mouse; assay type: in vivo
Excerpt: An area (2-3 cm^2) of hair on the posterior dorsum of 48-day old mice was plucked; in mice of this age, hair follicles in the posterior dorsum are in the telogen (resting) phase of the hair cycle. Plucking hairs from resting follicles stimulates new hair growth and by 7 days later those hairs being erupting through the skin surface. Mice were fitted with cardboard collars to prevent investigation and spread of the ointment to non-treated areas of the skin and then housed individually in cages. The ointment containing [Nle^4, D-Phe^7 -]alpha-MSH (0.5 ml, 10^-6 M) was applied daily to the plucked area at the time of new hair eruption. A sample of emerging hair was removed prior to topical application of the melanotropin and every 24 hours thereafter for seven days.
Eumelanin was not visible within hairs taken from control mice. […] Only phaeomelanosomes were present in mice treated with the control ointment containing no melanotropin.

[5] = test system: C57BL/6JA^y yellow mouse; assay: subcutaneous injection, follicular melanogenesis in the yellow mouse; assay type: in vivo
Excerpt: Alpha-MSH and [Nle^4 D-Phe^7 ]--alpha-MSH were synthesized. Mice (C57BL/6JA^y) originally obtained from the Jackson Laboratories (Bar Harbor, ME) were raised in our laboratory with continuous access to food and water.
Melanotropins induce melanogenesis only during hair growth, and melanosomes are continuously incorporated into cells of the hair shaft as long as the hair remains in the anagen (proliferative) phase of the hair cycle. Eumelanin synthesis in only those hairs currently growing results in the formation of a pattern showing the specific areas on the animal in the anagen phase at the time of hormone injection.

[6] = test system: Mice with some pigmentation on their skin; assay: topical Azone cream on mice with some skin pigmentation; assay type: in vivo, mouse; conditions: 1.8% azone, MSH 0.001% or 0.003%
Excerpt: Example 4 was repeated with compositions comprising alpha-MSH or [Nle^4, D--Phe^7 ]-alpha-MSH in propylene glycol and 1-dodecylazacycloheptan-2-one [a synthetic polar surfactant previously known to enhance transdermal penetration of other compounds. See, e.g., Stoughton, R. B., Arch. Dematol. 118:479(1982); Stoughton, R. B. and W. O. McClure, Drug Devel. Indust. Pharm. 9(4):725(1983); (Azone)]. Although the vehicle was a solid at room temperature, it immediately softened and spread easily when applied to the shaved skin of the mouse.
In this example, the azone concentration was 1.8% and the MSH final concentration was either 0.001% (1mg/100g cream base) or 0.003%.
Mice with some pigmentation on their skin were treated with the same cream as Example 5.
The tails of the treated animals darkened in spite of not being directly treated topically.

[7] = single injection 0.05 ml, 10^-6 M

**Q.** `CCCC[C@H](NC(C)=O)C(=O)N[C@@H](CCC(=O)O)C(=O)N[C@@H](Cc1c[nH]cn1)C(=O)N[C@H](Cc1ccccc1)C(=O)N[C@@H](CCCNC(=N)N)C(=O)N[C@@H](Cc1c[nH]c2ccccc12)C(=O)NCC(N)=O` [Ac--[Nle^4 --D-Phe^7]--alpha-MSH4-10 --NH2] was tested. Which “REVERTANTS PER PLATE WITH S-9” value ([1]; 10^-2 M) did it give?
**A.** 0

**Q.** What about the “REVERTANTS PER PLATE WITHOUT S-9” value ([1]; 10^-2 M) of the same molecule?
**A.** 0

**Q.** And the “REVERTANTS PER PLATE WITH S-9” value ([1]; 10^-3 M)?
**A.** 0

**Q.** And the “REVERTANTS PER PLATE WITHOUT S-9” value ([1]; 10^-3 M)?
**A.** 0

**Q.** What about the “REVERTANTS PER PLATE WITH S-9” value ([1]; 10^-4 M) of the same molecule?
**A.** 0

**Q.** What about the “REVERTANTS PER PLATE WITHOUT S-9” value ([1]; 10^-4 M) of the same molecule?
**A.** 0

**Q.** And the “Relative Potency Frog” value [2]?
**A.** 0.02

**Q.** Which “Relative Potency Lizard” value [3] does the source give for `CCCC[C@H](NC(C)=O)C(=O)N[C@@H](CCC(=O)O)C(=O)N[C@@H](Cc1c[nH]cn1)C(=O)N[C@H](C(=O)N[C@@H](CCCNC(=N)N)C(=O)N[C@@H](Cc1c[nH]c2ccccc12)C(=O)NCC(=O)N[C@@H](CCCCN)C(N)=O)c1ccccc1` [Ac--[Nle^4 --Plg^7]--alpha-MSH4-11 --NH2] (Ac-[Nle]EH[Phg]RWGK-NH2) here?
**A.** 0.14

**Q.** What about the “Relative Potency Frog” value [2] of the same molecule?
**A.** 0.14

**Q.** Which results are given for `CCCC[C@H](NC(C)=O)C(=O)N[C@@H](CCC(=O)O)C(=O)N[C@@H](Cc1c[nH]cn1)C(=O)N[C@@H](Cc1ccccc1)C(=O)N[C@@H](CCCNC(=N)N)C(=O)N[C@@H](Cc1c[nH]c2ccccc12)C(N)=O` [Ac--[Nle^4 --alpha-MSH4-9 --NH2] (Ac-[Nle]EHFRW-NH2)?
**A.** Relative Potency Lizard [3]: 0.18; Relative Potency Frog [2]: 0.0007

**Q.** Which “Relative Potency Lizard” value [3] does the source give for `CCCC[C@H](NC(C)=O)C(=O)N[C@@H](CCC(=O)O)C(=O)N[C@@H](Cc1c[nH]cn1)C(=O)N[C@@H](Cc1ccccc1)C(=O)N[C@@H](CCCNC(=N)N)C(=O)N[C@@H](Cc1c[nH]c2ccccc12)C(=O)NCC(=O)N[C@@H](CCCCN)C(N)=O` [Ac--[Nle^4]-alpha-MSH4-11 --NH2] (Ac-[Nle]EHFRWGK-NH2) here?
**A.** 1.54

**Q.** What about the “Relative Potency Frog” value [2] of the same molecule?
**A.** 0.0019

**Q.** With `CCCC[C@H](NC(C)=O)C(=O)N[C@@H](CCC(=O)O)C(=O)N[C@@H](Cc1c[nH]cn1)C(=O)N[C@@H](Cc1ccc([N+](=O)[O-])cc1)C(=O)N[C@@H](CCCNC(=N)N)C(=O)N[C@@H](Cc1c[nH]c2ccccc12)C(=O)NCC(=O)N[C@@H](CCCCN)C(N)=O` [Ac--[Nle^ 4 --pNO2 Phe^7]--alpha-MSH4-11 --NH2] (Ac-[Nle]EH[Phe(4-NO2)]RWGK-NH2) as the molecule, how does the “Relative Potency Lizard” value [3] read?
**A.** 0.20

**Q.** And the “Relative Potency Frog” value [2]?
**A.** 0.0009

**Q.** How did the “[…] PLATE WITHOUT S-9” value ([1]; 10 µg/ml) turn out when `COc1cccc2c1C(=O)c1c(O)c3c(c(O)c1C2=O)C[C@@](O)(C(=O)CO)C[C@@H]3O[C@H]1C[C@H](N)[C@H](O)[C@H](C)O1` [Adriamycin, Doxorubicin] was run?
**A.** 230

**Q.** And the “[…] PLATE WITHOUT S-9” value ([1]; 100 µg/ml)?
**A.** 1940

**Q.** And the “[…] PLATE WITHOUT S-9” value ([1]; 1.0 g/ml)?
**A.** 0

**Q.** And the mutagenicity in vitro ([1]; TA-98, with and without S-9)?
**A.** significantly mutagenic

**Q.** “[Nle^4, D--Phe^7 ]--alpha-MSH [[Nle^4, D-Phe^7]-alpha-MSH]” was tested. Which “time to eumelanin within hair bulbs following application” value ([4]; topical ointment 0.5 ml, 10^-6 M daily, microscopic examination) did it give?
**A.** ≤ 24 h

**Q.** What about the “melanosomes within follicular melanocytes, electron microscopic examination” value ([4]; topical ointment daily) of the same molecule?
**A.** presence of eumelanotic melanosomes within follicular melanocytes

**Q.** And the coat color change ([5]; 14 consecutive daily injections)?
**A.** entire coat color was found to be changed

**Q.** What about the “duration of eumelanogenesis after the one injection” value [5, 7] of the same molecule?
**A.** 96 h

**Q.** What about the “time to shift from phaeomelanin production to eumelanin synthesis within hair bulbs” value [5, 7] of the same molecule?
**A.** 24 h

**Q.** And the “histologic examination of pigment” value [6]?
**A.** increased pigment in the areas of non-follicular melancytes

**Q.** What about the “tail colour, tail not directly treated” value [6] of the same molecule?
**A.** darkened
